Experimental data published in US20090191137A1, “Method and Material for Controlling or Eliminating Potentially Harmful, Contaminating or Nuisance Micro-Organisms or Cells” (priority 2007, published 2009).

Test system: algae (Chlamydomonas)
Assay: NM7O added to a suspension of algae (algaecide test)
Format: cell-based
Details: algae 1×10^6 cells/ml in tubes
Description: The color change can serve as a valuable indicator of activity, as untreated NM7O remains suspended and violet colored.
This may be due to the requirement of direct contact between the product and the algae.

SMILES: O=S(=O)([O-])[O-].[Cu+2] [copper sulfate]
- effect on algal suspension (appearance of the solution): the solution turned blue
- microscopic evaluation of the sediment (appearance of treated cells): appeared intact with full cellular contents
